Key:
Test in all cases: Antibiogram by diffusion technique (CA-SFM 2008)
Format in all cases: cell-based
E. coli ATCC 25922 = system: E. coli ATCC 25922; parameters: Diameter (D): unit not given here
Description: Three clinical categories were selected for interpretation of the in vitro sensitivity tests: sensitive (S), resistant (R) and intermediate (I). • The strains categorized S are those for which the probability of therapeutic success is high in the case of treatment by systemic route with the dosing schedule recommended in the summary of product characteristics (SPC) prepared by the French Health Products Safety Agency ([…]). • The strains categorized R are those for which there is a high probability of therapeutic failure regardless of treatment type and antibiotic dose. • The strains categorized I are those for which therapeutic success cannot be predicted. These strains form a heterogeneous group for which the results obtained in vitro are not predictive of therapeutic success. […] The intermediate category is also a buffer zone which takes into account technical and biological uncertainties. The sensitivity of strains to antibiotics was determined by a diffusion technique according to the 2008 recommendations by the Antibiogram Committee of the French Microbiology Society (CA-SFM). In terms of critical concentrations and diameters, strains are categorized as follows: • sensitive (S): strains for which the MIC of the antibiotic tested is less than or equal to the lower critical concentration c, which is equivalent to a diameter greater than or equal to the critical diameter D; • resistant (R): strains for which the MIC of the antibiotic tested are greater than the upper critical concentration C, corresponding to a diameter less than the critical diameter d; • intermediate sensitivity (I): strains for which the MIC of the antibiotic tested and the corresponding diameter are between the two critical concentrations and the two critical diameters. The tests were carried out on Mueller-Hinton agar. An inoculum adjusted to 0.5 on the McFarland scale is then diluted to 1/100. Petri dishes are inoculated by swabbing. The dishes are read after 24 hours of incubation at 37° C. The raw results are then interpreted according to the interpretative reading rules of the CA-SFM. Two examples: all strains of methicillin-resistant Staphylococcus are resistant to all beta-lactams, and the same is true for gentamicin-resistant strains; golden staph is necessarily resistant to kanamycin (and amikacin) and tobramycin. The quality of the diffusion method is controlled using E. coli strain ATCC 25922.

[1] = system: Pseudomonas aeruginosa strain 8129; parameters: D: unit not given here
Description: (§1) Three clinical categories were selected for interpretation of the in vitro sensitivity tests: sensitive (S), resistant (R) and intermediate (I). • The strains categorized S are those for which the probability of therapeutic success is high in the case of treatment by systemic route with the dosing schedule recommended in the summary of product characteristics (SPC) prepared by the French Health Products Safety Agency (AFSSAPS). • The strains categorized R are those for which there is a high probability of therapeutic failure regardless of treatment type and antibiotic dose. • The strains categorized I are those for which therapeutic success cannot be predicted. These strains form a heterogeneous group for which the results obtained in vitro are not predictive of therapeutic success. […] The intermediate category is also a buffer zone which takes into account technical and biological uncertainties.
(§2) The sensitivity of strains to antibiotics was determined by a diffusion technique according to the 2008 recommendations by the Antibiogram Committee of the French Microbiology Society (CA-SFM).
(§3) In terms of critical concentrations and diameters, strains are categorized as follows: • sensitive (S): strains for which the MIC of the antibiotic tested is less than or equal to the lower critical concentration c, which is equivalent to a diameter greater than or equal to the critical diameter D; • resistant (R): strains for which the MIC of the antibiotic tested are greater than the upper critical concentration C, corresponding to a diameter less than the critical diameter d; • intermediate sensitivity (I): strains for which the MIC of the antibiotic tested and the corresponding diameter are between the two critical concentrations and the two critical diameters.
(§4) The tests were carried out on Mueller-Hinton agar. An inoculum adjusted to 0.5 on the McFarland scale is then diluted to 1/100. Petri dishes are inoculated by swabbing. The dishes are read after 24 hours of incubation at 37° C.
(§5) The raw results are then interpreted according to the interpretative reading rules of the CA-SFM.

E. coli strain 8154 = system: E. coli strain 8154; parameters: D: unit not given here
Description: as §1, §2, §3, §4, §5

E. coli strain 8156 = system: E. coli strain 8156; parameters: D: unit not given here
Description: as §1, §2, §3, §4, §5

[2] = system: Pseudomonas aeruginosa strain 8128; parameters: D: unit not given here
Description: as §1, §2, §3, §4, §5

[3] = system: golden staph (S. aureus) strain 8147; parameters: D: unit not given here
Description: as §1, §2, §3, §4, §5

[4] = system: Pseudomonas aeruginosa strain 8134; parameters: D: unit not given here
Description: as §1, §2, §3, §4, §5

[5] = system: golden staph (S. aureus) strain 8239; parameters: D: unit not given here
Description: as §1, §2, §3, §4, §5

E. coli strain 8155 = system: E. coli strain 8155; parameters: D: unit not given here
Description: as §1, §2, §3, §4, §5

[6] = system: golden staph (S. aureus) strain 8240; parameters: D: unit not given here
Description: as §1, §2, §3, §4, §5

[7] = system: Pseudomonas aeruginosa strain 8132; parameters: D: unit not given here
Description: as §1, §2, §3, §4, §5

E. coli strain 8157 = system: E. coli strain 8157; parameters: D: unit not given here
Description: as §1, §2, §3, §4, §5

[8] = system: Enterobacter aerogenes (9004); details: strain 9004
Description: as §1, §2, §3, §4, §5

E. coli strain 9003 = system: E. coli strain 9003
Description: as §1, §2, §3, §4, §5

[9] = system: strain 9007, Pseudomonas aeruginosa, with VIM-2 carbapenemase
Description: as §1, §2, §3, §4, §5

[10] = system: strain 9010, Acinetobacter baumannii, with VEB-1 ESBL
Description: as §1, §2, §3, §4, §5

Enterococcus strain 8152 = system: Enterococcus strain 8152; parameters: Diameter: unit not given here
Description: as §1, §2, §3, §4, §5

Enterococcus strain 8153 = system: Enterococcus strain 8153; parameters: Diameter: unit not given here
Description: as §1, §2, §3, §4, §5

[11] = system: Enterococcus faecium (9001); details: strain 9001
Description: as §1, §2, §3, §4, §5

Molecule | Category (Cat.) (E. coli ATCC 25922) | Diameter (D) (E. coli ATCC 25922) | Cat. [1] | D [1] | Cat. (E. coli strain 8154) | D (E. coli strain 8154) | Cat. (E. coli strain 8156) | D (E. coli strain 8156) | Cat. [2] | Cat. [3] | D [3] | Cat. [5] | D [5] | Cat. [6] | D [6] | Category (Enterococcus strain 8152) | Diameter (Enterococcus strain 8152) | Category (Enterococcus strain 8153) | Diameter (Enterococcus strain 8153) | Category [11] | other results
CC1(C)S[C@@H]2[C@H](NC(=O)[C@H](N)c3ccc(O)cc3)C(=O)N2[C@H]1C(=O)O [Amoxicillin] | S | 23 | R | 0 | R | 0 | S | 25 | R | R | 26 | R | 12 | R | 17 | S | 32 | S | 33 | – | D [2]: 0; Cat. [4]: R; D [4]: 0; Cat. (E. coli strain 8155): S; D (E. coli strain 8155): 24; Cat. [7]: R; D [7]: 0; Cat. (E. coli strain 8157): R; D (E. coli strain 8157): 0; Category [8]: R; Category (E. coli strain 9003): R; Category [9]: R; Category [10]: R
CC1(C)S[C@@H]2[C@H](NC(=O)[C@H](N)c3ccccc3)C(=O)N2[C@H]1C(=O)O [Ampi] | – | – | – | – | – | – | – | – | – | – | – | – | – | – | – | – | – | – | – | R | –
O=C(N[C@H](CO)[C@H](O)c1ccc([N+](=O)[O-])cc1)C(Cl)Cl [Chloram] | – | – | – | – | – | – | – | – | – | – | – | – | – | – | – | – | – | – | – | S | –
CCC[C@@H]1C[C@@H](C(=O)N[C@@H]([C@H]2O[C@H](SC)[C@H](O)[C@@H](O)[C@H]2O)[C@H](C)Cl)N(C)C1 [Clindamycin] | – | – | – | – | – | – | – | – | – | S | 29 | S | 31 | S | 30 | R | 0 | R | 0 | R | –
CC[C@H]1OC(=O)[C@H](C)[C@@H](O[C@H]2C[C@@](C)(OC)[C@@H](O)[C@H](C)O2)[C@H](C)[C@@H](O[C@@H]2O[C@H](C)C[C@H](N(C)C)[C@H]2O)[C@](C)(O)C[C@@H](C)C(=O)[C@H](C)[C@@H](O)[C@]1(C)O [Erythro] | – | – | – | – | – | – | – | – | – | – | – | – | – | – | – | – | – | – | – | R | –
NC[C@H]1O[C@H](O[C@H]2[C@H](O)[C@@H](O[C@H]3O[C@H](CO)[C@@H](O)[C@H](N)[C@H]3O)[C@H](N)C[C@@H]2N)[C@H](O)[C@@H](O)[C@@H]1O [Kanamycin] | S | 22 | R | 10 | S | 24 | S | 27 | R | S | 22 | S | 26 | R | 12 | R | 10 | R | 14 | R | D [2]: 9; Cat. [4]: R; D [4]: 14; Cat. (E. coli strain 8155): S; D (E. coli strain 8155): 23; Cat. [7]: R; D [7]: 0; Cat. (E. coli strain 8157): S; D (E. coli strain 8157): 24; Category [9]: R; Category [10]: R
CC(=O)NC[C@H]1CN(c2ccc(N3CCOCC3)c(F)c2)C(=O)O1 [Linezolid] | – | – | – | – | – | – | – | – | – | – | – | – | – | – | – | – | – | – | – | S | –
COc1c(N2C[C@@H]3CCCN[C@@H]3C2)c(F)cc2c(=O)c(C(=O)O)cn(C3CC3)c12 [Moxiflo] | – | – | – | – | – | – | – | – | – | – | – | – | – | – | – | – | – | – | – | R | –
CN[C@@H]1[C@H](O[C@H]2[C@H](O[C@H]3[C@H](O)[C@@H](O)[C@H](N=C(N)N)[C@@H](O)[C@@H]3N=C(N)N)O[C@@H](C)[C@]2(O)C=O)O[C@@H](CO)[C@H](O)[C@H]1O [Strepto HC] | – | – | – | – | – | – | – | – | – | – | – | – | – | – | – | – | – | – | – | R | –
CN(C)[C@@H]1C(O)=C(C(N)=O)C(=O)[C@@]2(O)C(O)=C3C(=O)c4c(O)cccc4[C@@](C)(O)[C@H]3C[C@@H]12 [Tetra] | – | – | – | – | – | – | – | – | – | – | – | – | – | – | – | – | – | – | – | S | –
NC[C@H]1O[C@H](O[C@H]2[C@H](O)[C@@H](O[C@H]3O[C@H](CO)[C@@H](O)[C@H](N)[C@H]3O)[C@H](N)C[C@@H]2N)[C@H](N)C[C@@H]1O [Tobramycin] | S | 24 | S | 27 | S | 24 | S | 22 | S | S | 30 | S | 31 | R | 0 | R | 11 | R | 14 | – | D [2]: 30; Cat. [4]: R; D [4]: 11; Cat. (E. coli strain 8155): S; D (E. coli strain 8155): 24; Cat. [7]: R; D [7]: 0; Cat. (E. coli strain 8157): S; D (E. coli strain 8157): 24; Category [8]: R; Category (E. coli strain 9003): S; Category [9]: S; Category [10]: R
CN[C@H](CC(C)C)C(=O)N[C@H]1C(=O)N[C@@H](CC(N)=O)C(=O)N[C@H]2C(=O)N[C@H]3C(=O)N[C@H](C(=O)N[C@H](C(=O)O)c4cc(O)cc(O)c4-c4cc3ccc4O)[C@H](O)c3ccc(c(Cl)c3)Oc3cc2cc(c3O[C@@H]2O[C@H](CO)[C@@H](O)[C@H](O)[C@H]2O[C@H]2C[C@](C)(N)[C@H](O)[C@H](C)O2)Oc2ccc(cc2Cl)[C@H]1O [Vanco] | – | – | – | – | – | – | – | – | – | – | – | – | – | – | – | – | – | – | – | R | –
Amoxicillin + clavulanic acid | S | 22 | R | 0 | S | 14 | S | 22 | R | R | 25 | R | 27 | R | 25 | S | 30 | S | 32 | – | D [2]: 0; Cat. [4]: R; D [4]: 0; Cat. (E. coli strain 8155): S; D (E. coli strain 8155): 24; Cat. [7]: R; D [7]: 0; Cat. (E. coli strain 8157): S; D (E. coli strain 8157): 30; Category [8]: R; Category (E. coli strain 9003): S; Category [9]: R; Category [10]: R

From patent publication US9034918B2, “Composition including at least one trans-cinnamaldehyde and the use thereof in the treatment of bacterial infections, specifically in the treatment of nosocomial infections” (SEPTEOS, priority 2009, dated 2015)
